As a reminder, the mortality is the share of the test organisms that died. For orientation: melting point means the temperature of the solid-liquid transition.

The test system of data set [1] is Haemonchus contortus. Put plainly: Test B: Haemonchus contortus burdens in infected mice after oral gavage. The format is in vivo. As to conditions: oral gavage 10.0 mg/kg body weight on day 0, Haemonchus contortus burdens on day 5 relative to vehicle-dosed controls. Here is the method: For evaluating control of the barber pole worm (Haemonchus contortus), mice were each infected orally with 600 L3 Haemonchus contortus larvae on Day −3. On day 0, the infected mice were gavaged with a test compound (n=1) in a propylene glycol/glycerol formal solution at the rate of 10.0 mg/kg body weight. On day 5, the mice were euthanized and evaluated for Haemonchus contortus burdens relative to the vehicle-dosed controls. The range of means for the number of Haemonchus contortus in the various tests in which these compounds were studied was 92-184.

In data set [2] the test system is Haemonchus contortus. Put plainly: Test A: control of barber pole worm, eggs in culture media, mortality at L3 stage. The format is cell-based. To be noted: 120 h. The protocol:
For evaluating control of the barber pole worm (Haemonchus contortus), a test compound was solubilized in culture media (Earle's Balanced Salt Solution) containing Haemonchus contortus eggs to obtain a final test compound concentration of 2.0 ppm. The test unit was evaluated for mortality 120 hours later after which the eggs had hatched and had advanced to the L3 stage.

In the case of `O=S(=O)(NCc1ccnc2ccccc12)c1ccc(C#CC2CC2)cc1` [Compound 2, 4-(2-cyclopropylethynyl)-N-(4-quinolinylmethyl)benzenesulfonamide], the “% Efficacy” value with Haemonchus contortus [1] worked out at 60%. In addition, the mortality at 2 ppm with Haemonchus contortus [2] turned out to be 100%. On to `O=S(=O)(NCc1ccnc2ccccc12)c1ccc(C#Cc2ccccn2)cc1` [Compound 4, 4-[2-(2-pyridinyl)ethynyl]-N-(4-quinolinylmethyl)benzenesulfonamide], for which the “% Efficacy” value with Haemonchus contortus [1] is on record as 89%. Moreover, the mortality at 2 ppm in the data set with Haemonchus contortus [2] is 100%. In the case of `O=S(=O)(NCc1ccnc2ccccc12)c1ccc(C#CC2CC2)s1` [Compound 15, 5-(2-cyclopropylethynyl)-N-(4-quinolinylmethyl)-2-thiophenesulfonamide], in the data set with Haemonchus contortus [1], the “% Efficacy” value is on record as 93%. In addition, the mortality at 2 ppm in the data set on Haemonchus contortus [2] came out at 100%.

`O=S(=O)(NCc1ccnc2ncccc12)c1ccc(C#CC2CC2)cc1` [Compound 48, 4-(2-cyclopropylethynyl)-N-(1,8-naphthyridin-4-ylmethyl)-benzenesulfonamide] registered a melting point of 193 to 195 °C.
